According to patent US20230058189A1, “QUINOLIN-4-ONE AND 4(1H)-CINNOLINONE COMPOUNDS AND METHODS OF USING SAME” (Frequency Therapeutics, Inc., priority 2019, published 2023):

Columns and labels:
[1] = Caco-2 cell permeability assay; type: in vitro ADME; conditions: human, pH 7.4, approximate values; for efflux ratio at 2 h, 10 µM: Caco-2, Papp (B-A)/Papp (A-B); for Papp A→B at 2 h, 10 μM: Caco-2, apical to basolateral
Protocol: A Caco-2 cell permeability assay can be used for in vitro prediction of drug permeability and absorption, an important feature for a compound to be useful for methods described herein. The apparent permeability (Papp) of the compounds of the present disclosure were determined in Caco-2 cells to measure the rate of drug transport per surface area of the cell membrane. Further the efflux ratios of the compounds of the present disclosure were measured in Caco-2 cells to determine the apparent permeability coefficient in basolateral to apical direction with respect to the apparent permeability coefficient in apical to basolateral direction.
50 μL and 25 mL of cell culture medium were added to each well of the Transwell insert and reservoir, respectively. The HTS transwell plates were incubated at 37° C., 5% CO2 for 1 hour before cell seeding. Caco-2 cells were diluted to 6.86×10^5 cells/mL with culture medium and 50 μL of cell suspension were dispensed into the filter well of the 96-well HTS Transwell plate. Cells were cultivated for 14-18 days in a cell culture incubator at 37° C., 5% CO295% relative humidity. Cell culture medium was replaced every other day, beginning no later than 24 hours after initial plating.
Medium was removed from the reservoir and each Transwell insert and replaced with prewarmed fresh culture medium. Transepithelial electrical resistance (TEER) across the monolayer was measured using Millicell Epithelial Volt-Ohm measuring system (Millipore, USA). The Plate was returned to the incubator once the measurement was done. The TEER value was calculated according to the following equation: TEER measurement (ohms)×Area of membrane (cm^2)=TEER value (ohm·cm^2).
To prepare the HBSS (25 mM HEPES, pH 7.4), accurately weigh 5.958 g of HEPES and 0.35 g sodium hydrogen carbonate and add into 900 mL of pure water, then sonicate to dissolve the content. Transfer 100 mL of 10× HBSS into the solution, and place the solution on a stirrer, slowly adjust pH with sodium hydrate to 7.4, following with filtering. Add 6 μL of stock solution (10 mM) of test compound or control compound to 24 μL of DMSO into the same well to obtain 2 mM stock solutions. Transfer 3 μL of 2 mM solution into 597 μL of transport buffer in one 96 well plate to prepare the 10 μM compound working solution. Shake the plate at 1000 rpm for 10 min. The final concentration of DMSO in the incubation system was 0.5%. Metoprolol, erythromycin, and cimetidine were used as control compounds.
Assays can be conducted using Caco-2 cells to assay transport of a compound or composition For example, Caco-2 plates prepared as described above were removed from the incubator. Monolayers were washed twice with pre-warmed HBSS (25 mM HEPES, pH 7.4), then the plates were incubated at 37° C. for 30 minutes. To determine the rate of drug transport in the apical to basolateral direction, 108 μL of the working solution was added to the Transwell insert (apical compartment), and 8 μL sample was immediately transferred from the apical compartment to 72 μL transport buffer and 240 μL of acetonitrile containing IS (100 nM alprazolam, 200 nM caffeine and 100 nM tolbutamide) in a new 96-well plate as the initial donor sample (A-B). The samples were then vortexed at 1000 rpm for 10 minutes. The wells in the receiver plate (basolateral compartment) were filled with 300 μL of transport buffer. To determine the rate of drug transport in the basolateral to apical direction, 308 μL of the working solution were added to the receiver plate wells (basolateral compartment), and 8 μL sample was immediately transferred from the basolateral compartment to 72 μL transport buffer and 240 μL of acetonitrile containing IS (100 nM alprazolam, 200 nM caffeine and 100 nM tolbutamide) into a new 96-well plate as the initial donor sample (B-A), then Vortexed at 1000 rpm for 10 minutes. The Transwell insert (apical compartment) was filled with 100 μL of transport buffer. […]

Foxo-1 = Foxo-1 (Homo sapiens, UniProt Q12778); conditions: from Molecular Pharmacology (2010), 78(5), 961-970; approximate values; read-out: Potency Foxo-1; cited from earlier work
Chain of Foxo-1 (Q12778 whole entry, species assumed): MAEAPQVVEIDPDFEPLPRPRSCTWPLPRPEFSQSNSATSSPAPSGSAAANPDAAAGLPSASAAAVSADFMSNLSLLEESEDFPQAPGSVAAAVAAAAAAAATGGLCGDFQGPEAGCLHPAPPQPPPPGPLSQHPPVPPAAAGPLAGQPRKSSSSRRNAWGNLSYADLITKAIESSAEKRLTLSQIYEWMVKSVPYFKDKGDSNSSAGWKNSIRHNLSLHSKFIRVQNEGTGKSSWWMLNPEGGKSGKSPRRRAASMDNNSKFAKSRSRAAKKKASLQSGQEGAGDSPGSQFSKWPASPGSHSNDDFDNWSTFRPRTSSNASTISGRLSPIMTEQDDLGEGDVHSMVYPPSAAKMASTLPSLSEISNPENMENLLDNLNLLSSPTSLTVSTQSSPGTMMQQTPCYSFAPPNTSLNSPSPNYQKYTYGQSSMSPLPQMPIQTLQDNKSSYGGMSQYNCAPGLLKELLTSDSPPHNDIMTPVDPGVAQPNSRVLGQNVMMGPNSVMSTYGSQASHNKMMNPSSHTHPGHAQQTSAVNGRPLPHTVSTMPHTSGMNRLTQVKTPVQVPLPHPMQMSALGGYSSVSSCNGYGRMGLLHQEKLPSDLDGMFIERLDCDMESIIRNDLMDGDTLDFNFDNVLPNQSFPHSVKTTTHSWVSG

Row | Compound | efflux ratio at 2 h, 10 µM [1] | Papp A→B at 2 h, 10 μM [1] | IC50 (Foxo-1)
1 | CCn1cc(C(=O)O)c(=O)c2cc(F)c(NC3CCCCC3)cc21 [Compound I-1] | 0.47 | 31 ×10⁻⁶ cm/s | 
2 | CCn1cc(C(=O)O)c(=O)c2c(N)c(F)c(NC3Cc4ccccc4C3)cc21 [Compound I-11] | 0.53 | 5.5 ×10⁻⁶ cm/s | 
3 | CCn1cc(C(=O)O)c(=O)c2c(N)c(F)c(NCCCc3ccccc3)cc21 [Compound I-19] | 0.38 | 5.9 ×10⁻⁶ cm/s | 
4 | CCn1cc(C(=O)O)c(=O)c2c(N)c(F)c(N[C@@H]3CC[C@@H]3c3ccccc3)cc21 (relative stereo) [Compound I-14] | 0.58 | 8.6 ×10⁻⁶ cm/s | 
5 | CCn1cc(C(=O)O)c(=O)c2c(N)c(F)c(NC3CCCCC3)cc21 [Compound I-7] | 0.32 | 13 ×10⁻⁶ cm/s | < 100 nM
6 | CCn1cc(C(=O)O)c(=O)c2c(N)c(F)c(N[C@@H]3CC[C@H]3c3ccccc3)cc21 (relative stereo) [Compound I-13] | 0.53 | 5.5 ×10⁻⁶ cm/s | 
7 | CCn1cc(C(=O)O)c(=O)c2c(N)c(F)c(NC3CCCC3)cc21 [Compound I-9] | 0.56 | 3.4 ×10⁻⁶ cm/s | 
8 | CCn1cc(C(=O)O)c(=O)c2c(N)c(F)c(NC3CCOCC3)cc21 [Compound I-8] | 3.02 | 11 ×10⁻⁶ cm/s | 
9 | CCC(CC)n1cc(C(=O)O)c(=O)c2c(C)c(F)c(NC3CCCCC3)cc21 [Compound I-3] | 0.27 | 3.3 ×10⁻⁶ cm/s | < 100 nM
10 | CCn1cc(C(=O)O)c(=O)c2c(N)c(F)c(N[C@@H]3C[C@H]3c3ccccc3)cc21 (single isomer, unassigned) [Compound I-20] | 0.29 | 6.1 ×10⁻⁶ cm/s | 
11 | CCn1cc(C(=O)O)c(=O)c2c(N)c(F)c(N3CCC(N[C@@H]4C[C@H]4c4ccccc4)CC3)cc21 (relative stereo) [Compound I-26] | 0.85 | 7.9 ×10⁻⁶ cm/s | 
12 | CCn1cc(C(=O)O)c(=O)c2c(N)c(F)c(NCCN[C@@H]3C[C@H]3c3ccccc3)cc21 (relative stereo) [Compound I-29] | 0.39 | 9.1 ×10⁻⁶ cm/s | 
13 | CCn1cc(C(=O)O)c(=O)c2c(N)c(F)c(NCCc3ccccc3)cc21 [Compound I-18] | 0.66 | 11 ×10⁻⁶ cm/s | 
14 | CCn1cc(C(=O)O)c(=O)c2c(N)c(F)c(N[C@@H]3C[C@@H]3c3ccccc3)cc21 (relative stereo) [Compound I-23] | 0.69 | 1.1 ×10⁻⁶ cm/s | 
15 | CCn1cc(C(=O)O)c(=O)c2c(N)c(F)c(NCc3ccccc3)cc21 [Compound I-17] | 0.45 | 23 ×10⁻⁶ cm/s | 
16 | CCn1cc(C(=O)O)c(=O)c2c(N)c(F)c(NC3CCc4ccccc43)cc21 (centres unmarked) [Compound I-10] | 0.56 | 6.3 ×10⁻⁶ cm/s | 
17 | CCn1cc(C(=O)O)c(=O)c2c(N)c(F)c(NC3CCC3)cc21 [Compound I-12] | 0.72 | 21 ×10⁻⁶ cm/s | 
18 | CCn1cc(C(=O)O)c(=O)c2c(N)c(F)c(N[C@H]3CC[C@@H](N[C@@H]4C[C@H]4c4ccccc4)CC3)cc21 (relative stereo) [Compound I-28] | 0.48 | 3.1 ×10⁻⁶ cm/s | 
19 | CCn1cc(C(=O)O)c(=O)c2c(N)c(F)c(NC3CC3)cc21 [Compound I-15] | 0.48 | 38 ×10⁻⁶ cm/s | 
20 | CCn1cc(C(=O)O)c(=O)c2c(N)c(F)c(Nc3ccccc3)cc21 [Compound I-16] | 0.6 | 17 ×10⁻⁶ cm/s | 
21 | CCn1cc(C(=O)O)c(=O)c2c(N)c(F)c(N[C@H]3CC[C@H](N[C@@H]4C[C@H]4c4ccccc4)CC3)cc21 (relative stereo) [Compound I-27] | 1.96 | 0.94 ×10⁻⁶ cm/s | 

Now from value to compound, other results behind:

Row | efflux ratio at 2 h, 10 µM [1] | Papp A→B at 2 h, 10 μM [1] | Compound | IC50 (Foxo-1)
22 | 0.24 | 2.2 ×10⁻⁶ cm/s | CCn1cc(C#N)c(=O)c2c(N)c(F)c(NCCc3ccccc3)cc21 [Compound I-67] | 
23 | 0.63 | 0.06 ×10⁻⁶ cm/s | CCn1cc(-c2nnn[nH]2)c(=O)c2c(N)c(F)c(NCCc3ccccc3)cc21 [Compound I-68] | 
24 | 58 | 1.8 ×10⁻⁶ cm/s | CCn1cc(C(N)=O)c(=O)c2c(N)c(F)c(NCCc3ccccc3)cc21 [Compound I-66] | 
25 | 0.78 | 4.6 ×10⁻⁶ cm/s | CCn1cc(C(=O)O)c(=O)c2c(N)c(F)c(NC3CN(c4ccccc4)C3)cc21 [Compound I-69] | 
26 | 2.1 | 4.1 ×10⁻⁶ cm/s | CCn1cc(C#N)c(=O)c2c(N)c(F)c(NCCN[C@@H]3C[C@H]3c3ccccc3)cc21 (relative stereo) [Compound I-84] | 
27 | 38 | 0.82 ×10⁻⁶ cm/s | CCn1cc(C(=O)O)c(=O)c2c(N)c(F)c(Nc3ccc([C@@H]4C[C@H]4N)cc3)cc21 (relative stereo) [Compound I-62] | 
28 | 1.4 | 5 ×10⁻⁶ cm/s | Cn1cc(C(=O)O)c(=O)c2c(N)c(F)c(NCCN[C@@H]3C[C@H]3c3ccccc3)cc21 (relative stereo) [Compound I-86] | 
29 | 0.59 | 5.9 ×10⁻⁶ cm/s | CCn1cc(C(=O)O)c(=O)c2c(N)c(F)c(NCCN[C@@H]3C[C@]34CCc3ccccc34)cc21 (relative stereo) [Compound I-81] | 
30 | 0.58 | 6.4 ×10⁻⁶ cm/s | CCn1cc(C(=O)O)c(=O)c2c(N)cc(N[C@@H]3C[C@H]3c3ccccc3)cc21 (relative stereo) [Compound I-59] | 
31 | 0.47 | 4.2 ×10⁻⁶ cm/s | Nc1c(F)c(N[C@@H]2C[C@H]2c2ccccc2)c(F)c2c1c(=O)c(C(=O)O)cn2C1CC1 (relative stereo) [Compound I-32] | 
32 | 1.04 | 9.7 ×10⁻⁶ cm/s | CCn1cc(C(=O)O)c(=O)c2c(N)c(F)c(N(C)CCN[C@H]3C[C@@H]3c3ccccc3)cc21 (relative stereo) [Compound I-50] | 
33 | 1.3 | 5.1 ×10⁻⁶ cm/s | CCn1cc(C(N)=O)c(=O)c2c(N)c(F)c(NCCN[C@H]3C[C@@H]3c3ccccc3)cc21 (relative stereo) [Compound I-83] | 
34 | 1.2 | 2.4 ×10⁻⁶ cm/s | CCn1cc(C(=O)O)c(=O)c2c(N)c(F)c(NC3CC(N[C@@H]4C[C@H]4c4ccccc4)C3)cc21 (relative stereo) [Compound I-70] | 
35 | 0.4 | 7.1 ×10⁻⁶ cm/s | CCn1cc(C(=O)O)c(=O)c2c(N)cc(NCCCc3ccccc3)cc21 [Compound I-57] | 
36 | 0.5 | 0.32 ×10⁻⁶ cm/s | CCn1cc(C(=O)O)c(=O)c2c(N)c(F)c(N[C@H]3C[C@H](c4ccccc4)C3)cc21 [Compound I-60] | 
37 | 0.85 | 0.11 ×10⁻⁶ cm/s | CCn1cc(C(=O)O)c(=O)c2c(N)c(F)c(N[C@H]3C[C@@H](c4ccccc4)C3)cc21 [Compound I-61] | 
38 | 1.4 | 4.7 ×10⁻⁶ cm/s | CCCn1cc(C(=O)O)c(=O)c2c(N)c(F)c(NCCN[C@@H]3C[C@H]3c3ccccc3)cc21 (relative stereo) [Compound I-87] | 
39 | 0.75 | 1.6 ×10⁻⁶ cm/s | CCn1cc(C#N)c(=O)c2c(N)c(F)c(N[C@@H]3C[C@H]3c3ccccc3)cc21 (relative stereo) [Compound I-38] | 
